Test results from ChEMBL document CHEMBL1128989, “-Methanesulfonyl-L-valine as a novel, unnatural amino acid surrogate for P2 in the design of HIV protease inhibitors” (Bioorg Med Chem Lett, 1996).

Experiments:
[1] = Ratio of IC50/Ki was determined
[2] = molecular target: Human immunodeficiency virus type 1 protease (Human immunodeficiency virus 1, UniProt Q72874); experiment: Inhibitory activity against P2 site in HIV protease.
[3] = tested on: Human immunodeficiency virus 1; experiment: Antiviral activity against PBMC infected with Human immunodeficiency virus type 1 NL4-3 isolate.; format: functional

| SMILES | Ratio [1] | Ki [2] [nM] | CIC IC50 [3] [nM] |
| --- | --- | --- | --- |
| CC(C)(C)NC(=O)[C@@H]1C[C@@H]2CCCC[C@@H]2CN1C[C@@H](O)[C@H](Cc1ccccc1)NC(=O)[C@H](CS(C)(=O)=O)NC(=O)c1ccc2ccccc2n1 | 195 | 0.113 | 22 |
| CC(C)(C)NC(=O)[C@@H]1C[C@@H]2CCCC[C@@H]2CN1C[C@@H](O)[C@H](Cc1ccccc1)NC(=O)[C@@H](NC(=O)c1ccc2ccccc2n1)C(C)(C)S(C)(=O)=O | 28 | 0.172 | 4.9 |
| CC(C)(C)NC(=O)[C@@H]1C[C@@H]2CCCC[C@@H]2CN1C[C@@H](O)[C@H](Cc1ccccc1)NC(=O)[C@H](CC(N)=O)NC(=O)c1ccc2ccccc2n1 | – | – | 23 |
| CSC(C)(C)[C@H](NC(=O)c1ccc2ccccc2n1)C(=O)N[C@@H](Cc1ccccc1)[C@H](O)CN1C[C@H]2CCCC[C@H]2C[C@H]1C(=O)NC(C)(C)C | 10 | 2.59 | 27 |
| CC(C)[C@H](NC(=O)c1ccc2ccccc2n1)C(=O)N[C@@H](Cc1ccccc1)[C@H](O)CN1C[C@H]2CCCC[C@H]2C[C@H]1C(=O)NC(C)(C)C | 98 | 0.55 | 54 |
| CC(C)(C)NC(=O)[C@@H]1C[C@@H]2CCCC[C@@H]2CN1C[C@@H](O)[C@H](Cc1ccccc1)NC(=O)[C@@H](NC(=O)OCc1ccccc1)C(C)(C)S(C)(=O)=O | 68 | 0.162 | 11 |
